{"source": "patent US11072590B2", "about": "“1,4,7,10-tetrazacyclododecane based agents to target bacteria and its use” (HELMHOLTZ-ZENTRUM FUER INFEKTIONSFORSCHUNG GMBH, priority 2014, dated 2021)", "format_in_all_cases": "cell-based", "key": {"[1]": {"system": "Pseudomonas aeruginosa PA7, Acinetobacter baumannii, Staphylococcus aureus MRSA", "test": "Bacterial inhibition assays, across the bacteria tested", "description": "(§1) All liquids and media were sterilized by autoclaving (121° C., 15 min) before use. All aqueous solutions and media were prepared using distilled, deionized, and filtered water (Millipore Milli-Q Advantage A10 Water Purification System) Mueller-Hinton No. 2 broth (MHII broth; cation adjusted) was purchased from Sigma-Aldrich (St. Louis, Mo.). Iron-deficient (−Fe) MHII broth was prepared by adding 0.8 mL of a 1 mg/mL sterile aq. solution of 2,2′-bipyridine to 49.2 mL of MHII broth. Iron-rich (+Fe) MHII broth was prepared by adding 0.8 mL of a 1 mg/mL sterile aq. solution of FeCl3 to 49.2 mL of MH II broth.\nAntibacterial activity of the compounds was determined by measuring their minimum inhibitory concentrations (MIC90's) using the broth microdilution method according to the Clinical and Laboratory Standards Institute (CLSI, formerly the NCCLS) guidelines. Each well of a 96-well microtiter plate was filled with 40 μL of sterile broth media (−Fe or +Fe). Each test compound was dissolved in DMSO making a 10 mM solution, and then diluted with sterile broth media (−Fe or +Fe) to 75 or 150 μM. […]\nCompounds HHY-10 and HHY-11 were subjected to further assays to determine their minimum inhibitory concentrations (MIC) in both iron-rich and iron-deficient media (Table 1). […] The inhibitory activities of vancomycin siderophore-DOTA conjugate HHY-30 have been analyzed under similar conditions."}, "[2]": {"system": "P. aeruginosa PA01/pirA", "test": "Broth microdilution MIC, P. aeruginosa PA01/pirA mutant", "conditions": "mutant with defect in ferric enterobactin receptor (pirA)", "description": "as §1\n(§2) Antibacterial activity of the compounds was determined by measuring their minimum inhibitory concentrations (MIC90's) using the broth microdilution method according to the Clinical and Laboratory Standards Institute (CLSI, formerly the NCCLS) guidelines. Each well of a 96-well microtiter plate was filled with 40 μL of sterile broth media (−Fe or +Fe). Each test compound was dissolved in DMSO making a 10 mM solution, and then diluted with sterile broth media (−Fe or +Fe) to 75 or 150 μM. Exactly 80 μL of the compound solution was added to the first well of the microtiter plate and 1.5-fold serial dilutions were made down each row of the plate. Exactly 40 μL of bacterial inoculum (Acinetobacter baumannii, Pseudomonas aeruginosa, Staphylococcus aureus Starting Optical density (OD)=0.0005) was then added to each well giving a total volume of 80 μL/well. The plate was incubated at 37° C. for 48 h and then each well was examined for bacterial growth. The MIC90 was recorded as the lowest compound concentration (μM) required to inhibit 90% of bacterial growth as judged by turbidity of the culture media relative to a row of wells filled with a DMSO standard."}, "[3]": {"system": "P. aeruginosa PA07/wt", "test": "Broth microdilution MIC, P. aeruginosa PA07/wt", "description": "as §1, §2"}, "[4]": {"system": "Pseudomonas aeruginosa PA7 (DSM 24068)", "test": "Broth microdilution MIC, Pseudomonas aeruginosa", "description": "as §1, §2\n(§3) Compounds HHY-10 and HHY-11 were subjected to further assays to determine their minimum inhibitory concentrations (MIC) in both iron-rich and iron-deficient media (Table 1). […] Compounds 10 and 11 were also tested against Klebsiella pneumoniae (DSM 11678, ATCC 33495), which is able to synthesize and utilize enterobactin and its degraded product for iron uptake under iron-limited conditions. […] It appears that P. aeruginosa, A. baumannii, Straph aureus and K. pneumoniae, either induced or inherently, have different abilities to use triscatecholate as a siderophore for iron uptake. The inhibitory activities of vancomycin siderophore-DOTA conjugate HHY-30 have been analyzed under similar conditions."}, "[5]": {"system": "Acinetobacter baumannii (DSM 30007, ATCC 19606)", "test": "Broth microdilution MIC, Acinetobacter baumannii", "description": "as §1, §2, §3"}, "[6]": {"system": "P. aeruginosa PA14/wt", "test": "Broth microdilution MIC, P. aeruginosa PA14/wt", "description": "as §1, §2"}, "[7]": {"system": "Acinetobacter baumannii", "test": "Uptake in bacteria by confocal fluorescent microscopy", "conditions": "20 μM probe, 1 hour at 37° C., PBS", "description": "The uptake of coumarin 343, HHY-10 and HHY-11 was investigated in gram-negative bacteria Pseudomonas aeruginosa PA7 (DSM 24068), Acinetobacter baumannii (DSM 30007, ATCC 19606) and gram-positive bacteria Staphylococcus aureus MRSA (DSM 11822, ICB 25701). Gram-negative bacteria were cultured overnight in Mueller Hinton Broth (M-H Broth)+1% glucose (10 g/L) or Gram-positive bacteria were cultured overnight in trypticase soy yeast extract medium (TSY-Med) at 37° C. under 5% CO2 in an incubator shaker set at 180 rpm. Bacteria (from the overnight culture) were re-suspended in 10 mL of PBS buffer, to an optical density of 0.1 at 600 nm. The bacterial culture solution was transferred into 48 well plates, with each well containing 200 μL of bacteria, and 0.4 μL of either coumarin 343, HHY-10 and HHY-11 stock solutions (10 mM in PBS) were added, generating a 20 μM probe concentration. The bacteria were incubated with the probes for 1 hour at 37° C. under 5% CO2 in an incubator without shaking. The bacteria were harvested by centrifuging the bacterial solutions. The resulting pellets were washed 3 times with 200 μL PBS by resuspending the pellets in PBS and centrifuging. The washed bacterial pellets were transferred into a slice, then imaged using confocal fluorescent microscopy. The intensity of the green signal from coumarin presents the relevant amount of these probes taken by the bacteria."}, "[8]": {"system": "Klebsiella pneumoniae (DSM 11678, ATCC 33495)", "test": "Broth microdilution MIC, Klebsiella pneumoniae", "description": "as §1, §2, §3"}, "[9]": {"system": "Staphylococcus aureus MRSA (DSM 11822, ICB 25701)", "test": "Broth microdilution MIC, Staphylococcus aureus", "description": "as §1, §2, §3"}, "[10]": {"system": "P. aeruginosa PA01/wt", "test": "Broth microdilution MIC, P. aeruginosa PA01/wt", "description": "as §1, §2"}, "[11]": {"system": "P. aeruginosa PAO01/fptA", "test": "Broth microdilution MIC, P. aeruginosa PAO01/fptA mutant", "conditions": "mutation in pyochelin outer membrane receptor precursor", "description": "as §1, §2"}, "[12]": {"conditions": "Fe− (iron-deficient MHII broth)"}}, "note": "Read-outs that look alike come from different tables or passages of the source.", "data": [{"smiles": "CC(=O)Oc1cccc(C(=O)NCCNC(=O)CN2CCN(CC(=O)NCCCOCCOCCOCCCNC(=O)c3cc4cc5c6c(c4oc3=O)CCCN6CCC5)CCN(CC(=O)NCCNC(=O)c3cccc(OC(C)=O)c3OC(C)=O)CCN(CC(=O)NCCNC(=O)c3cccc(OC(C)=O)c3OC(C)=O)CC2)c1OC(C)=O", "note": "[HHY-10]", "values": [{"measurement": "antibacterial activity", "setting": "[1]; iron-deficient medium", "result": "media antibacterial activity"}, {"measurement": "MIC", "setting": "[2]; Pseudomonas aeruginosa, PA01/PIRA, Fe+ (iron-rich MHII broth)", "result": "> 100", "unit": "µM"}, {"measurement": "MIC", "setting": "[2]; Pseudomonas aeruginosa, PA01/PIRA, Fe− (iron-deficient MHII broth)", "result": 40, "unit": "µM"}, {"measurement": "MIC", "setting": "[3]; Pseudomonas aeruginosa, PA07/WT, Fe+ (iron-rich MHII broth)", "result": "> 100", "unit": "µM"}, {"measurement": "MIC", "setting": "[3]; Pseudomonas aeruginosa, PA07/WT, Fe− (iron-deficient MHII broth)", "result": 40, "unit": "µM"}, {"measurement": "MIC", "setting": "[4]; Pseudomonas aeruginosa, DSM24068, Fe+ (iron-rich MHII broth)", "result": "> 100", "unit": "µM"}, {"measurement": "MIC", "setting": "[4]; Pseudomonas aeruginosa, DSM24068, Fe− (iron-deficient MHII broth)", "result": 33, "unit": "µM"}, {"measurement": "MIC", "setting": "[5]; Acinetobacter baumannii, Fe+ (iron-rich MHII broth)", "result": "> 100", "unit": "µM"}, {"measurement": "MIC", "setting": "[5]; Acinetobacter baumannii, Fe− (iron-deficient MHII broth)", "result": 15, "unit": "µM"}, {"measurement": "MIC", "setting": "[6]; Pseudomonas aeruginosa, PA14, Fe+ (iron-rich MHII broth)", "result": "> 100", "unit": "µM"}, {"measurement": "MIC", "setting": "[6]; Pseudomonas aeruginosa, PA14, Fe− (iron-deficient MHII broth)", "result": 40, "unit": "µM"}, {"measurement": "uptake: fluorescence (green signal from coumarin) in bacteria", "setting": "[7]", "result": "obvious fluorescent signals"}, {"measurement": "MIC", "setting": "[8]; [12]", "result": ">100", "unit": "µM"}, {"measurement": "MIC", "setting": "[8]; Klebsiella pneumoniae", "result": "> 100", "unit": "µM"}, {"measurement": "MIC", "setting": "[8]; Klebsiella pneumoniae, read-out: MIC (inactive against K. pneumoniae)", "result": "> 100", "unit": "µM"}, {"measurement": "MIC", "setting": "[9]; Staphylococcus aureus, Fe+ (iron-rich MHII broth)", "result": "> 100", "unit": "µM"}, {"measurement": "MIC", "setting": "[9]; Staphylococcus aureus, Fe− (iron-deficient MHII broth)", "result": 28, "unit": "µM"}, {"measurement": "MIC", "setting": "[10]; Pseudomonas aeruginosa, PA01/WT, Fe+ (iron-rich MHII broth)", "result": "> 100", "unit": "µM"}, {"measurement": "MIC", "setting": "[10]; Pseudomonas aeruginosa, PA01/WT, Fe− (iron-deficient MHII broth)", "result": 40, "unit": "µM"}, {"measurement": "MIC", "setting": "[11]; Pseudomonas aeruginosa, PAO01/FPTA, Fe+ (iron-rich MHII broth)", "result": "> 100", "unit": "µM"}, {"measurement": "MIC", "setting": "[11]; Pseudomonas aeruginosa, PAO01/FPTA, Fe− (iron-deficient MHII broth)", "result": 40, "unit": "µM"}]}, {"smiles": "O=C(O)c1cc2cc3c4c(c2oc1=O)CCCN4CCC3", "note": "[Coumarin 343, reference compound]", "values": [{"measurement": "MIC (generally inactive)", "setting": "[1]; across bacteria", "result": "> 100", "unit": "µM"}, {"measurement": "MIC", "setting": "[2]; Fe+ (iron-rich MHII broth)", "result": ">100", "unit": "µM"}, {"measurement": "MIC", "setting": "[2]; [12]", "result": ">100", "unit": "µM"}, {"measurement": "MIC", "setting": "[3]; Fe+ (iron-rich MHII broth)", "result": ">100", "unit": "µM"}, {"measurement": "MIC", "setting": "[3]; [12]", "result": ">100", "unit": "µM"}, {"measurement": "MIC", "setting": "[4]; Fe+ (iron-rich MHII broth)", "result": ">100", "unit": "µM"}, {"measurement": "MIC", "setting": "[4]; [12]", "result": ">100", "unit": "µM"}, {"measurement": "MIC", "setting": "[5]; Fe+ (iron-rich MHII broth)", "result": ">100", "unit": "µM"}, {"measurement": "MIC", "setting": "[5]; [12]", "result": ">100", "unit": "µM"}, {"measurement": "MIC", "setting": "[6]; Fe+ (iron-rich MHII broth)", "result": ">100", "unit": "µM"}, {"measurement": "MIC", "setting": "[6]; [12]", "result": ">100", "unit": "µM"}, {"measurement": "uptake: fluorescence (green signal from coumarin) in bacteria", "setting": "[7]", "result": "would not lead to obvious fluorescence"}, {"measurement": "MIC", "setting": "[8]; Fe+ (iron-rich MHII broth)", "result": ">100", "unit": "µM"}, {"measurement": "MIC", "setting": "[8]; [12]", "result": ">100", "unit": "µM"}, {"measurement": "MIC", "setting": "[9]; Fe+ (iron-rich MHII broth)", "result": ">100", "unit": "µM"}, {"measurement": "MIC", "setting": "[9]; [12]", "result": ">100", "unit": "µM"}, {"measurement": "MIC", "setting": "[10]; Fe+ (iron-rich MHII broth)", "result": ">100", "unit": "µM"}, {"measurement": "MIC", "setting": "[10]; [12]", "result": ">100", "unit": "µM"}, {"measurement": "MIC", "setting": "[11]; Fe+ (iron-rich MHII broth)", "result": ">100", "unit": "µM"}, {"measurement": "MIC", "setting": "[11]; [12]", "result": ">100", "unit": "µM"}]}]}
